Reference: patent US5847123A, “Imide derivatives for inhibiting the production of interleukin-1β and the production of tumor necrosis factor α” (Nisshin Flour Milling Co., Ltd., priority 1996, dated 1998)

How the values were obtained:
TNFα production [1] = assay: Inhibitory activity of the TNFα production in PMA/polyinosic acid-stimulated THP-1 cells (ELIZA kit); type: cell-based, human (THP-1 cells); settings: Homo sapiens, PMA 2 μg/ml and polyinosic acid 200 μg/ml, 22 hours
Protocol: (§1) Determination for the inhibitory activity of the IL-1β production and the inhibitory activity of the TNFα production
(§2) The THP-1 cells, which is the monocyte-established cell line derived from human peripheral blood (ATCC TIB202), were incubated at 37° C. in a 5% CO2 incubator in RPMI 1640 medium (available from Bio-Whittaker Co., Ltd.) containing 10% (v/v) of fetal bovine serum, 2 mM of glutamine, 50 μM of 2-mercaptoethanol, 60 μg/ml of penicillin and 100 μg/ml of streptomycin. The THP-1 cells maintained as described above were centrifuged at 1200 rpm at room temperature for 3 minutes to recover the cells in a 50 ml conical tube. The cell pellets thus obtained were resuspended in RPMI 1640 medium containing 2% (v/v) of fetal bovine serum and the glutamine, 2-mercaptoethanol and antibiotics as described above so as to provide a final THP-1 cell concentration of 2×10^6 cells/ml.
(§3) The cell resuspension having the above concentration was dispensed in 0.5 ml portions to a 24-well plate for cell culture. Then, 2.5 μl each of the solutions of the present imide derivatives dissolved in DMSO was added to each well. The plate was then incubated at 37° C. in a 5% CO2 incubator for one hour. Then, 12-o-tetradecanoylphorbol-13-acetate (hereinafter referred to as PMA) and polyinosic acid were added to each well so as to provide the final concentrations of 2 μg/ml and 200 μg/ml, respectively. The plate was further incubated at 37° C. in a 5% CO2 incubator for 22 hours and the IL-1β and TNFα produced in the cultured broth were assayed. The assay for IL-1β was carried out by means of the enzyme immunoassay kit available from Cayman Chemical Co., Ltd., while the assay of TNFα was done by means of the ELIZA kit available from Genzyme Co., Ltd.
(§4) The inhibitory activity was expressed in terms of IC50 values, wherein the produced amount of IL-1β and the produced amount of TNFα when no imide derivative was added are defined as 100, respectively, and the concentration of each imide derivative of the present invention to inhibit the IL-1β production and TNFα production is defined as IC50, respectively.

IL-1β production = assay: Inhibitory activity of the IL-1β production in PMA/polyinosic acid-stimulated THP-1 cells (enzyme immunoassay); type: cell-based, human (THP-1 cells); settings: Homo sapiens, PMA 2 μg/ml and polyinosic acid 200 μg/ml, 22 hours
Protocol: as §1, §2, §3, §4

TNFα production [2] = assay: Inhibitory activity of the TNFα production in LPS-treated mice (blood TNFα level); type: in vivo, DBA/2 strain mice; settings: for Inhibitory rate (%) of TNFα production: 10 mg/kg i.p. twice (before and after 30 minutes from LPS 5.6 mg/kg i.v.), blood TNFα after 2 hours; for inhibitory activity on the TNFα production in mice (in words): 10 mg/kg i.p., LPS-treated DBA/2 mice
Protocol: Determination for the inhibitory activity of the TNFα production To the DBA/2 strain mice previously given with LPS 5.6 mg/kg, i.v. were intraperitoneally administered twice before and after 30 minutes from the LPS administration the present imide derivatives selected from Compound 1, Compound 3, Compound 7, Compound 8, Compound 9 and Compound 26. After 2 hours from the LPD administration, the blood TNFα level was determined to investigate the inhibitory activity of the present imide derivatives on the TNFα production. More specifically, the blood TNFα level was determined when the present imide derivative was given at a dose of 10 mg/kg to calculate the inhibitory rate of the TNFα production.

[3] = Determination for cytotoxicity in THP-1 cells (Alamar Blue); type: cell-based; settings: human, 24 hours incubation, read-out: LD50 (lethal dose for 50% in the THP-1 cells)
Protocol: Determination for Cytotoxicity The THP-1 cells, which is the monocyte-established cell line derived from human peripheral blood (ATCC TIB202), were incubated at 37° C. in a 5% CO2 incubator in RPMI 1640 medium (available from Bio-Whittaker Co., Ltd.) containing 10% (v/v) of fetal bovine serum, 2 mM of glutamine, 50 μM of 2-mercaptoethanol, 60 μg/ml of penicillin and 100 μg/ml of streptomycin. The THP-1 cells maintained as described above were centrifuged at 1200 rpm at room temperature for 3 minutes to recover the cells in a 50 ml conical tube. The cell pellets thus obtained were suspended in RPMI 1640 medium containing 2% (v/v) of fetal bovine serum, 2 mM of glutamine, 50 μM of 2-mercaptoethanol, 60 μg/ml of penicillin and 100 μg/ml of streptomycin so as to provide the final cell concentration of 1×10^6 cells/ml. The cell suspension obtained as above was dispensed in 1 ml portions to a 24-well plate for cell culture. Then, 5 μl each of the solutions of the present imide derivatives dissolved in DMSO was added to each well. The plate was then incubated at 37° C. in a 5% CO2 incubator for 24 hours. After incubation, 100 μl of Alamar Blue (available from Biosource Co., Ltd.) was added to each well and then the plate was further incubated at 37° C. in a 5% CO2 incubator for 3 hours. Thereafter, a supernatant was recovered and determined for a difference in absorbances at 570 nm and 600 nm. Cytotoxicity was then evaluated in accordance with the survival rates determined from the differences in absorbances. More specifically, the lethal dose for 50% (LD50) in the THP-1 cells were calculated.

| SMILES | IC50 (TNFα production [1]) [µM] | IC50 (IL-1β production) [µM] | Inhibitory rate (%) of TNFα production (TNFα production [2]) [%] | inhibitory activity on the TNFα production in mice (in words) (TNFα production [2]) | CC50 at 24 h [3] [µM] |
| --- | --- | --- | --- | --- | --- |
| COC(=O)C1CCC(=O)N1C(=O)C#Cc1ccccc1 (racemic) [Compound 21] | 0.6 | 7 | – | – | – |
| O=C(C#Cc1ccccc1)N1CCCC1=O [Compound 1] | 1 | 1.4 | 22 | significant inhibitory activity | 70 |
| O=C(C#Cc1ccc(Cl)cc1)N1CCCC1=O [Compound 2] | 1.6 | 5.5 | – | – | – |
| O=C(C#Cc1ccc(F)cc1)N1CCCC1=O [Compound 3] | 1.3 | 3.8 | 37 | significant inhibitory activity | > 100 |
| N#Cc1ccc(C#CC(=O)N2CCCC2=O)cc1 [Compound 4] | 1.7 | 7 | – | – | – |
| N#Cc1ccc(C#CC(=O)N2CCOC2=O)cc1 [Compound 5] | 2.1 | 2.6 | – | – | – |
| O=C(C#Cc1ccc(F)cc1)N1CCOC1=O [Compound 6] | 1.7 | 2.4 | – | – | > 100 |
| O=C(C#Cc1ccccc1)N1CCOC1=O [Compound 7] | 1.2 | 1.1 | 22 | significant inhibitory activity | > 200 |
| O=C(C#Cc1ccccc1)N1CCCCCC1=O [Compound 8] | 2.1 | 6 | 31 | significant inhibitory activity | > 200 |
| CC1CCC(=O)N1C(=O)C#Cc1ccccc1 (stereo not shown) [Compound 9] | 0.9 | 2.8 | 29 | significant inhibitory activity | 110 |
| O=C(C#Cc1ccccc1)N1CCN(C(=O)C#Cc2ccccc2)C1=O [Compound 10] | 0.5 | 6.7 | – | – | – |
| O=C(C#Cc1ccccc1)N1CCNC1=O [Compound 11] | 0.5 | 1.8 | – | – | – |
| CCN(C(=O)C#Cc1ccccc1)C(=O)c1ccccc1 [Compound 12] | 5.4 | 9.6 | – | – | – |
| O=C(C#Cc1ccccc1)N(Cc1ccc(F)cc1)C(=O)c1ccccc1 [Compound 13] | 15 | 15 | – | – | – |
| CC(=O)NC(=O)C#Cc1ccccc1 [Compound 14] | 1.8 | 4.4 | – | – | – |
| CC(=O)N(C(=O)C#Cc1ccccc1)c1ccc2c(c1)OCO2 [Compound 15] | 1.7 | 6.3 | – | – | – |
| CCCCC(=O)N(CCCC)C(=O)C#Cc1ccccc1 [Compound 16] | 14 | 13 | – | – | – |
| COc1ccccc1CN(C(C)=O)C(=O)C#Cc1ccccc1 [Compound 17] | 1.8 | 3.1 | – | – | – |
| CCN(C(C)=O)C(=O)C#Cc1ccccc1 [Compound 18] | 4.4 | 5.7 | – | – | – |
| CCN(C(=O)C#Cc1ccccc1)C(=O)Cc1ccccc1Cl [Compound 19] | 1.3 | 2 | – | – | – |
| Cc1ccccc1N(C(=O)C#Cc1ccccc1)C(=O)CCc1ccccc1 [Compound 20] | 1.9 | 1.3 | – | – | – |
| CC(=O)N(C(=O)C#Cc1ccccc1)c1ccccn1 [Compound 22] | 14 | 12 | – | – | – |
| CC(=O)N(Cc1ccco1)C(=O)C#Cc1ccccc1 [Compound 24] | 4.4 | 10 | – | – | – |
| CCN(C(=O)C#Cc1ccccc1)C(=O)c1cccs1 [Compound 25] | 4.8 | > 30 | – | – | – |
| CC(=O)N(C(=O)C#Cc1ccccc1)c1ccncc1 [Compound 26] | 1.7 | 8.8 | 37 | significant inhibitory activity | – |
| O=C(C#Cc1ccccc1)N(C(=O)c1ccccc1)c1ccc(F)cc1F [Compound 27] | 3 | 14 | – | – | – |
| CC(=O)N(CCc1ccccc1)C(=O)C#Cc1ccccc1 [Compound 28] | 1.7 | 8.8 | – | – | – |
| CCN(C(=O)C#Cc1ccccc1)C(=O)COC [Compound 29] | > 30 | > 30 | – | – | – |
| CC(=O)N(CCN(C)C)C(=O)C#Cc1ccccc1 [Compound 30] | 3.7 | 6.3 | – | – | – |
